Where “and” joins values, the source holds several entries; their conditions need not be identical. Identical values can stand only once.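 In this assay, cells in 96-well plates receive the compound at five concentrations for 48 hours. Endpoints are linearly interpolated between the surrounding concentrations. Abbreviation: GI50, concentration required for 50% inhibition of growth. TGI denotes the concentration required for complete inhibition of growth.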
Key:
Test in all cases: NCI tumour cell line growth inhibition, 48 h
NCI-H23 lung = test system: NCI-H23 lung
HOP-62 NSCLC = test system: HOP-62 NSCLC
KM12 colon = test system: KM12 colon
SF-539 CNS = test system: SF-539 CNS
SR leukemia = test system: SR leukemia
ACHN renal = test system: ACHN renal
SN12C renal = test system: SN12C renal
BT-549 breast = test system: BT-549 breast
SW-620 colon = test system: SW-620 colon
SNB-19 CNS = test system: SNB-19 CNS

Compound | GI50 (NCI-H23 lung) | TGI (NCI-H23 lung) | GI50 (HOP-62 NSCLC) | TGI (HOP-62 NSCLC) | GI50 (KM12 colon) | TGI (KM12 colon) | GI50 (SF-539 CNS) | TGI (SF-539 CNS) | GI50 (SR leukemia) | TGI (SR leukemia) | GI50 (ACHN renal) | TGI (ACHN renal) | GI50 (SN12C renal) | TGI (SN12C renal) | GI50 (BT-549 breast) | TGI (BT-549 breast) | GI50 (SW-620 colon) | TGI (SW-620 colon) | GI50 (SNB-19 CNS) | TGI (SNB-19 CNS)
O=C(Nc1ccc(I)cc1F)c1cc(Br)ccc1O | 0.472 µM | 3.34 µM | 2.03 µM | 7.04 µM | 2.2 µM | 5.49 µM | 0.583 µM | 3.74 µM | 0.564 µM | > 100 µM | 0.592 µM | 11.4 µM | 0.416 µM | 4.09 µM | 0.37 µM | 1.76 µM | 0.849 µM | 9.47 µM | 0.41 µM | > 100 µM
CN1CCc2ccccc2C1Cc1ccccc1NC(=O)c1sc2ccccc2c1Cl (stereo not drawn) |  | > 100 µM |  | > 100 µM |  | > 100 µM |  | > 100 µM |  | > 100 µM |  | > 100 µM |  | > 100 µM |  | > 100 µM |  | > 100 µM |  | > 100 µM
O=C(Nc1ccc(Cl)c(C(F)(F)F)c1)Nc1ccc(-c2cccnc2)cc1N1CCC(CO)CC1 | 2.78 µM | 9.55 µM | 2.02 µM | 5.09 µM | 2.2 µM | 6.44 µM | 2.29 µM | 5.84 µM | 3.49 µM | > 100 µM | 3 µM | > 100 µM | 3.46 µM | 19 µM | 2.13 µM | 6.22 µM | 2.76 µM | 27.2 µM | 3.89 µM | > 100 µM
CC(=O)O[C@@H]1c2c(c3c(=O)c4cccc(O)c4c(=O)c=3c2=[N+]=[N-])[C@H](OC(C)=O)[C@@H](OC(C)=O)[C@]1(C)O | 0.411 µM | 1.77 µM and 1.59 µM |  | 1.37 µM and 1.98 µM | 0.27 µM | 0.914 µM and 0.9 µM | 0.162 µM | 1.14 µM and 0.316 µM | 0.0582 µM | 0.37 µM and 0.36 µM | 0.161 µM | 0.374 µM and 0.3 µM | 0.236 µM and 0.0851 µM | 0.815 µM and 0.288 µM |  | 1.33 µM | 0.216 µM | 1.22 µM | 0.689 µM | 2.35 µM and 3.51 µM
CC(C)(C)c1cc(C[P+](c2ccccc2)(c2ccccc2)c2ccccc2)cc(C(C)(C)C)c1O | 0.365 µM | 8.21 µM | 0.66 µM | 3.94 µM | 0.364 µM | 1.51 µM | 0.854 µM | 7.83 µM | 0.403 µM | 2.5 µM | 2.63 µM | 10.8 µM | 0.404 µM | 2.31 µM | 0.33 µM | 0.898 µM | 0.528 µM | 12 µM | 0.354 µM | 13.8 µM
c1cc(OCCN2CCCC2)ccc1CNc1ccc2nc(CCC3CCCCC3)[nH]c2c1 | 2.45 µM | 8.17 µM | 1.71 µM | 3.62 µM | 2.7 µM | 8.46 µM | 1.51 µM | 3 µM | 0.29 µM | 1.03 µM | 2.29 µM | 5.99 µM | 2.08 µM | 8.21 µM | 1.56 µM | 3.17 µM | 1.85 µM | 3.96 µM | 2.91 µM | 10 µM
O=C(COc1ccccc1)NNc1ccccc1 | > 300 µM | > 300 µM | 116 µM | > 300 µM | 9.03 µM and 6.49 µM | > 300 µM | 18.1 µM and 9.52 µM | 55.1 µM and 37.6 µM | > 26.3 µM and 6.77 µM | > 300 µM | 12.5 µM and 13.9 µM | > 300 µM | > 300 µM | > 300 µM | 90.7 µM | > 300 µM | 13.4 µM and 18.9 µM | > 300 µM | 234 µM | > 300 µM
COc1cc(-n2cc(-c3ccc(Cl)cc3)n(-c3ccccc3)c2=O)cc(OC)c1OC | 35.1 µM | > 100 µM | 44.3 µM | > 100 µM | 23.3 µM | > 100 µM | 27.1 µM | > 100 µM | 4.48 µM | > 38.4 µM | 25.8 µM | > 100 µM | 23.3 µM | > 72.5 µM | 17.5 µM | 57.3 µM | 27.1 µM | > 100 µM | 36.7 µM | > 100 µM
COc1ccc(Nc2ncc(I)c(NCCCNC(=O)C3CCC3)n2)cc1 | 5.26 µM | 46.9 µM | 1.64 µM | 21.8 µM | 3.42 µM | > 100 µM | 3.47 µM | 18.4 µM | 4.91 µM | > 100 µM | 3.65 µM | > 100 µM | 1.46 µM | > 100 µM | 2.52 µM | 7.92 µM | 9.28 µM | > 100 µM | 5.26 µM | > 100 µM
NC(=O)c1cn(C2CC(O)C(CO)O2)c2ncnc(N)c12 (stereo not drawn) | 2.5 µM | 18.8 µM | 5.36 µM | 49.7 µM | 5.18 µM | 28.4 µM | 3.34 µM | 15.1 µM | 6.6 µM | > 100 µM | 3.62 µM | > 58.1 µM | 1.56 µM | 31.1 µM | 0.203 µM | 2.87 µM | 2.58 µM | 20.6 µM | 7 µM | 45.5 µM
CCOC(=O)c1ccc(N2NC(=O)/C(=C/c3ccc([N+](=O)[O-])o3)C2=O)cc1 | 21 µM | 52.6 µM | 29.9 µM | > 55.7 µM | > 40.7 µM | > 55.3 µM | 18.8 µM | 46 µM | 10.1 µM | 57.8 µM | 8.27 µM | 20.8 µM | 27.5 µM | > 55.8 µM | 20.1 µM | 39.7 µM | 4.3 µM | 9.38 µM | > 44.8 µM | > 72.2 µM
CCCN(CCC)c1ccc(/C=N/NC(=O)c2cccnc2)c(C)c1 | 14.4 µM | 32.1 µM | 18.2 µM | 43.3 µM | 11.9 µM | 24.5 µM | 13.8 µM | 29.3 µM | 8.15 µM | 41.7 µM | 24.5 µM | > 100 µM | 17.5 µM | 41.2 µM | 15.2 µM | 29.3 µM | 14.8 µM | 35.7 µM | 16.1 µM | 34.1 µM
CCOc1ccccc1/C=N\N=C(N/N=C/c1ccccc1OCC)N/N=C/c1ccccc1OCC | 2.77 µM | > 100 µM | 1.85 µM | > 100 µM | 1.72 µM | > 100 µM | 2.41 µM | > 100 µM | 3.23 µM | > 100 µM | 1.56 µM | > 100 µM | 2.32 µM | > 100 µM | 2.67 µM | > 100 µM | 3.24 µM | > 100 µM | 2.2 µM | > 100 µM

Source: PubChem BioAssay (NCI)
